Biological target: T1, recombinant human Syk (GST-hSyk fusion protein) (Homo sapiens, UniProt P43405)
T1 construct: purchased Carna Biosciences 08-176
Experiment: Homogeneous Time-Resolved Fluorescence (HTRF) assay for the recombinant human Syk enzyme
Format: biochemical
Conditions: IC50 class; 10-dose titration, 25 μM ATP; read-out: rhSYK Activity
Procedure, shortened: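 GST-hSyk (5 pM) preincubated 10 min with compound (0.1% DMSO) in 15 mM Tris-HCl pH 7.5, 2 mM DTT; reaction started with 250 nM biotinylated peptide, 5 mM Mg, 25 μM ATP, 45 min, room temperature. EDTA quench, Eu-anti-phosphotyrosine/SA-APC HTRF read after 30 min; IC50 from 10-dose titration (10 μM–0.508 nM), four-parameter fit.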

IC50	Compound
≤ 100 nM	Cc1cc(Nc2nccc(C(C)C)n2)cc(-c2cnn(CCC(N)=O)c2)c1 [Example 2.8, 3-[4-(3-methyl-5-{[4-(1-methylethyl)-pyrimidin-2-yl]-amino}phenyl)-1H-pyrazol-1-yl]propanamide]
≤ 100 nM	Cc1cc(Nc2nccc(C(F)F)n2)cc(-c2cnn(CCC(N)=O)c2)c1 [Example 2.9, 3-[4-(3-{[4-(difluoromethyl)pyrimidin-2-yl]amino}-5-methylphenyl)-1H-pyrazol-1-yl]propanamide]
100 to 1000 nM	Cc1ccnc(Nc2cccc(-c3cnn(CCC(N)=O)c3)c2)n1 [Example 2.10, 3-(4-{3-[(4-methylpyrimidin-2-yl)amino]phenyl}-1H-pyrazol-1-yl)propanamide]
≤ 100 nM	COc1nc(Nc2cc(C)cc(-c3cnn(CCC(N)=O)c3)c2)ncc1F [Example 2.11, 3-(4-{3-[(5-fluoro-4-methoxypyrimidin-2-yl)amino]-5-methylphenyl}-1H-pyrazol-1-yl)propanamide]
≤ 100 nM	Cc1cc(Nc2nccc(C)n2)cc(-c2cnn(CCC(N)=O)c2)c1 [Example 2.12, 3-(4-{3-methyl-5-[(4-methylpyrimidin-2-yl)amino]phenyl}-1H-pyrazol-1-yl)propanamide]
≤ 100 nM	Cc1cc(Nc2ncc(Cl)c(C)n2)cc(-c2cnn(CCC(N)=O)c2)c1 [Example 2.13, 3-(4-{3-[(5-chloro-4-methylpyrimidin-2-yl)amino]-5-methylphenyl}-1H-pyrazol-1-yl)propanamide]
≤ 100 nM	Cc1cc(Nc2nccc(C3CC3)n2)cc(-c2cnn(CCC(N)=O)c2)c1 [Example 2.14, 3-(4-{3-[(4-cyclopropylpyrimidin-2-yl)amino]-5-methylphenyl}-1H-pyrazol-1-yl)propanamide]
≤ 100 nM	NC(=O)CCn1cc(-c2cccc(Nc3nccc(C(F)(F)F)n3)c2)cn1 [Example 2.15, 3-[4-(3-{[4-(trifluoromethyl)pyrimidin-2-yl]amino}phenyl)-1H-pyrazol-1-yl]propanamide]
100 to 1000 nM	Cc1ccnc(Nc2cccc(-c3cnn(CC4CNC(=O)O4)c3)c2)n1 (stereo not drawn) [Example 2.16, 5-[(4-{3-[(4-methylpyrimidin-2-yl)amino]phenyl}-1H-pyrazol-1-yl)methyl]-1,3-oxazolidin-2-one]
≤ 100 nM	COc1ccnc(Nc2cc(C)cc(-c3cnn(CC4CNC(=O)O4)c3)c2)n1 (stereo not drawn) [Example 2.17, 5-[(4-{3-[(4-methoxypyrimidin-2-yl)amino]-5-methylphenyl}-1H-pyrazol-1-yl)methyl]-1,3-oxazolidin-2-one]
≤ 100 nM	Cc1cc(Nc2nccc(C)n2)cc(-c2cnn(CC3CNC(=O)O3)c2)c1 (stereo not drawn) [Example 2.18, 5-[(4-{3-methyl-5-[(4-methylpyrimidin-2-yl)amino]phenyl}-1H-pyrazol-1-yl)methyl]-1,3-oxazolidin-2-one]
≤ 100 nM	Cc1cc(Nc2nccc(C3CC3)n2)cc(-c2cnn(CC3CNC(=O)O3)c2)c1 (stereo not drawn) [Example 2.19, 5-[(4-{3-[(4-cyclopropylpyrimidin-2-yl)amino]-5-methylphenyl}-1H-pyrazol-1-yl)methyl]-1,3-oxazolidin-2-one]
≤ 100 nM	Cc1ccnc(Nc2cccc(-c3cnn(CC4CNC(=O)O4)c3)c2)n1 (stereo not drawn) [Example 2.20, 5-[(4-{3-[(4-methylpyrimidin-2-yl)amino]phenyl}-1H-pyrazol-1-yl)methyl]-1,3-oxazolidin-2-one]
≤ 100 nM	COc1ccnc(Nc2cc(C)cc(-c3cnn(CC4CNC(=O)O4)c3)c2)n1 (stereo not drawn) [Example 2.21, 5-[(4-{3-[(4-methoxypyrimidin-2-yl)amino]-5-methylphenyl}-1H-pyrazol-1-yl)methyl]-1,3-oxazolidin-2-one]
≤ 100 nM	Cc1cc(Nc2ncc(F)c(C)n2)cc(-c2cnn(CC3CNC(=O)O3)c2)c1 (stereo not drawn) [Example 2.22, 5-[(4-{3-[(5-fluoro-4-methylpyrimidin-2-yl)amino]-5-methylphenyl}-1H-pyrazol-1-yl)methyl]-1,3-oxazolidin-2-one]
≤ 100 nM	COc1nc(Nc2cc(C)cc(-c3cnn(CC4CNC(=O)O4)c3)c2)ncc1Cl (stereo not drawn) [Example 2.23, 5-[(4-{3-[(5-chloro-4-methoxypyrimidin-2-yl)amino]-5-methylphenyl}-1H-pyrazol-1-yl)methyl]-1,3-oxazolidin-2-one]
≤ 100 nM	Cc1cc(Nc2nccc(C(C)C)n2)cc(-c2cnn(CC3CNC(=O)O3)c2)c1 (stereo not drawn) [Example 2.24, 5-{[4-(3-methyl-5-{[4-(1-methylethyl)pyrimidin-2-yl]amino}phenyl)-1H-pyrazol-1-yl]methyl}-1,3-oxazolidin-2-one]
≤ 100 nM	COc1nc(Nc2cc(C)cc(-c3cnn(CC4CNC(=O)O4)c3)c2)ncc1F (stereo not drawn) [Example 2.25, 5-[(4-{3-[(5-fluoro-4-methoxypyrimidin-2-yl)amino]-5-methylphenyl}-1H-pyrazol-1-yl)methyl]-1,3-oxazolidin-2-one]
≤ 100 nM	Cc1cc(Nc2ncc(Cl)c(C)n2)cc(-c2cnn(CC3CNC(=O)O3)c2)c1 (stereo not drawn) [Example 2.26, 5-[(4-{3-[(5-chloro-4-methylpyrimidin-2-yl)amino]-5-methylphenyl}-1H-pyrazol-1-yl)methyl]-1,3-oxazolidin-2-one]
≤ 100 nM	O=C1NCC(Cn2cc(-c3cccc(Nc4nccc(C(F)(F)F)n4)c3)cn2)O1 (stereo not drawn) [Example 2.27, 5-{[4-(3-{[4-(trifluoromethyl)pyrimidin-2-yl]amino}phenyl)-1H-pyrazol-1-yl]methyl}-1,3-oxazolidin-2-one]
≤ 100 nM	COc1nc(Nc2cc(C)cc(-c3cnn(CC4CNC(=O)O4)c3)c2)ncc1Cl (stereo not drawn) [Example 2.28, 5-[(4-{3-[(5-chloro-4-methoxypyrimidin-2-yl)amino]-5-methylphenyl}-1H-pyrazol-1-yl)methyl]-1,3-oxazolidin-2-one]
≤ 100 nM	Cc1cc(Nc2nccc(C(C)C)n2)cc(-c2cnn(CC3CNC(=O)O3)c2)c1 (stereo not drawn) [Example 2.29, 5-{[4-(3-methyl-5-{[4-(1-methylethyl)pyrimidin-2-yl]amino}phenyl)-1H-pyrazol-1-yl]methyl}-1,3-oxazolidin-2-one]
≤ 100 nM	COc1nc(Nc2cc(C)cc(-c3cnn(CC4CNC(=O)O4)c3)c2)ncc1F (stereo not drawn) [Example 2.30, 5-[(4-{3-[(5-fluoro-4-methoxypyrimidin-2-yl)amino]-5-methylphenyl}-1H-pyrazol-1-yl)methyl]-1,3-oxazolidin-2-one]
≤ 100 nM	Cc1cc(Nc2nccc(C)n2)cc(-c2cnn(CC3CNC(=O)O3)c2)c1 (stereo not drawn) [Example 2.31, 5-[(4-{3-methyl-5-[(4-methylpyrimidin-2-yl)amino]phenyl}-1H-pyrazol-1-yl)methyl]-1,3-oxazolidin-2-one]
≤ 100 nM	Cc1cc(Nc2ncc(Cl)c(C)n2)cc(-c2cnn(CC3CNC(=O)O3)c2)c1 (stereo not drawn) [Example 2.32, 5-[(4-{3-[(5-chloro-4-methylpyrimidin-2-yl)amino]-5-methylphenyl}-1H-pyrazol-1-yl)methyl]-1,3-oxazolidin-2-one]
≤ 100 nM	Cc1cc(Nc2nccc(C3CC3)n2)cc(-c2cnn(CC3CNC(=O)O3)c2)c1 (stereo not drawn) [Example 2.33, 5-[(4-{3-[(4-cyclopropylpyrimidin-2-yl)amino]-5-methylphenyl}-1H-pyrazol-1-yl)methyl]-1,3-oxazolidin-2-one]
≤ 100 nM	O=C1NCC(Cn2cc(-c3cccc(Nc4nccc(C(F)(F)F)n4)c3)cn2)O1 (stereo not drawn) [Example 2.34, 5-{[4-(3-{[4-(trifluoromethyl)pyrimidin-2-yl]amino}phenyl)-1H-pyrazol-1-yl]methyl}-1,3-oxazolidin-2-one]

Reference: patent US9242984B2, “Pyrazolyl derivatives as Syk inhibitors” (Merck Sharp & Dohme Corp., priority 2012, dated 2016)
